Results reported in ChEMBL document CHEMBL1150892, “Kalkipyrone, a toxic gamma-pyrone from an assemblage of the marine cyanobacteria Lyngbya majuscula and Tolypothrix sp” (J Nat Prod, 1998).
Values after ≈ are worked out from the molar mass of the structure shown.

How the values were obtained:
[1] = Ichthyotoxicity in gold fish after 1 hr; assay type: organism-based; conditions: carassius auratus, in vivo; read-out: LD50
[2] = Toxicity in Artemia salina; assay type: organism-based; conditions: in vivo, read-out: LD50 (the source's name)

COc1oc(C/C=C(\C)C/C=C/C(C)=C/[C@@H](C)O)c(C)c(=O)c1C [KALKIPYRONE]
LC50 at 1 h [1]: 2 µg/mL (≈ 6.02 µM)
LC50 [2]: 1 µg/mL (≈ 3.01 µM)
